Test results: PubChem BioAssay (NCI)
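Values below derive from 48-hour exposures of cells grown in 96-well plates, with endpoints linearly interpolated between the two concentrations bracketing the appropriate inhibition level. The concentration for 50% growth inhibition is given as GI50. The concentration for full growth arrest is given as TGI.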

Experiments:
Assay in all cases: growth of human tumour cells (NCI), 48 h
786-0 renal = tested on: 786-0 renal
A498 renal = tested on: A498 renal
A549 NSCLC = tested on: A549 NSCLC
ACHN renal = tested on: ACHN renal
BT-549 breast = tested on: BT-549 breast
CAKI-1 renal = tested on: CAKI-1 renal
CCRF-CEM leukemia = tested on: CCRF-CEM leukemia
COLO 205 colon = tested on: COLO 205 colon
DU-145 prostate = tested on: DU-145 prostate
EKVX NSCLC = tested on: EKVX NSCLC
HCC-2998 colon = tested on: HCC-2998 colon
HCT-116 colon = tested on: HCT-116 colon
HCT-15 colon = tested on: HCT-15 colon
HL-60(TB) leukemia = tested on: HL-60(TB) leukemia
HOP-62 NSCLC = tested on: HOP-62 NSCLC
HOP-92 NSCLC = tested on: HOP-92 NSCLC
HS 578T breast = tested on: HS 578T breast
HT29 colon = tested on: HT29 colon
IGROV1 ovarian = tested on: IGROV1 ovarian
K-562 leukemia = tested on: K-562 leukemia
KM12 colon = tested on: KM12 colon
LOX IMVI melanoma = tested on: LOX IMVI melanoma
M14 melanoma = tested on: M14 melanoma
MALME-3M melanoma = tested on: MALME-3M melanoma
MCF7 breast = tested on: MCF7 breast
MDA-MB-231 breast = tested on: MDA-MB-231 breast
MDA-MB-435 = tested on: MDA-MB-435
MOLT-4 leukemia = tested on: MOLT-4 leukemia
NCI-H226 lung = tested on: NCI-H226 lung
NCI-H23 lung = tested on: NCI-H23 lung
NCI-H460 lung = tested on: NCI-H460 lung
NCI-H522 lung = tested on: NCI-H522 lung
NCI/ADR-RES ovarian = tested on: NCI/ADR-RES ovarian
OVCAR-3 ovarian = tested on: OVCAR-3 ovarian
OVCAR-4 ovarian = tested on: OVCAR-4 ovarian
OVCAR-5 ovarian = tested on: OVCAR-5 ovarian
OVCAR-8 ovarian = tested on: OVCAR-8 ovarian
PC-3 prostate = tested on: PC-3 prostate
RPMI-8226 leukemia = tested on: RPMI-8226 leukemia
RXF 393 renal = tested on: RXF 393 renal
SF-268 CNS = tested on: SF-268 CNS
SF-295 CNS = tested on: SF-295 CNS
SF-539 CNS = tested on: SF-539 CNS
SK-MEL-2 melanoma = tested on: SK-MEL-2 melanoma
SK-MEL-28 melanoma = tested on: SK-MEL-28 melanoma
SK-MEL-5 melanoma = tested on: SK-MEL-5 melanoma
SK-OV-3 ovarian = tested on: SK-OV-3 ovarian
SN12C renal = tested on: SN12C renal
SNB-19 CNS = tested on: SNB-19 CNS
SNB-75 CNS = tested on: SNB-75 CNS
SR leukemia = tested on: SR leukemia
SW-620 colon = tested on: SW-620 colon
T-47D breast = tested on: T-47D breast
TK-10 renal = tested on: TK-10 renal
U251 CNS = tested on: U251 CNS
UACC-257 melanoma = tested on: UACC-257 melanoma
UACC-62 melanoma = tested on: UACC-62 melanoma
UO-31 renal = tested on: UO-31 renal

CCOC(=O)N(O)c1ccc(/C=C/c2ccccc2)cc1
GI50 (786-0 renal): 10.9 µM | TGI (786-0 renal): > 51.1 µM | GI50 (A498 renal): 0.146 µM | TGI (A498 renal): 0.291 µM | GI50 (A549 NSCLC): 2.98 µM | TGI (A549 NSCLC): 41.9 µM | GI50 (ACHN renal): 8.38 µM | TGI (ACHN renal): > 93.7 µM | GI50 (BT-549 breast): 9.38 µM | TGI (BT-549 breast): 40 µM | GI50 (CAKI-1 renal): 2.7 µM | TGI (CAKI-1 renal): 21.4 µM | GI50 (CCRF-CEM leukemia): 9.38 µM | TGI (CCRF-CEM leukemia): > 93.5 µM | GI50 (COLO 205 colon): 13.2 µM | TGI (COLO 205 colon): 38.5 µM | GI50 (DU-145 prostate): 11.2 µM | TGI (DU-145 prostate): > 88.6 µM | GI50 (EKVX NSCLC): 9.05 µM | TGI (EKVX NSCLC): 63.6 µM | GI50 (HCC-2998 colon): 7.03 µM | TGI (HCC-2998 colon): 21.3 µM | GI50 (HCT-116 colon): 0.407 µM | TGI (HCT-116 colon): 10.5 µM | GI50 (HCT-15 colon): 9.18 µM | TGI (HCT-15 colon): 37.4 µM | GI50 (HL-60(TB) leukemia): 8.59 µM | TGI (HL-60(TB) leukemia): 40.5 µM | GI50 (HOP-62 NSCLC): 7.45 µM | TGI (HOP-62 NSCLC): > 59 µM | GI50 (HOP-92 NSCLC): 4.96 µM | TGI (HOP-92 NSCLC): 35.7 µM | GI50 (HS 578T breast): 29.4 µM | TGI (HS 578T breast): > 100 µM | GI50 (HT29 colon): 8.3 µM | TGI (HT29 colon): 31.5 µM | GI50 (IGROV1 ovarian): 0.319 µM | TGI (IGROV1 ovarian): 3.21 µM | GI50 (K-562 leukemia): 5.88 µM | TGI (K-562 leukemia): > 100 µM | GI50 (KM12 colon): 10.6 µM | TGI (KM12 colon): 36.6 µM | GI50 (LOX IMVI melanoma): 7.22 µM | TGI (LOX IMVI melanoma): 20.6 µM | GI50 (M14 melanoma): 7.17 µM | TGI (M14 melanoma): 26.8 µM | GI50 (MALME-3M melanoma): 19.5 µM | TGI (MALME-3M melanoma): 61.4 µM | GI50 (MCF7 breast): 0.341 µM | TGI (MCF7 breast): 14.6 µM | GI50 (MDA-MB-231 breast): 9.39 µM | TGI (MDA-MB-231 breast): 39.9 µM | GI50 (MDA-MB-435): 11 µM | TGI (MDA-MB-435): 48.6 µM | GI50 (MOLT-4 leukemia): 11 µM | TGI (MOLT-4 leukemia): 51.3 µM | GI50 (NCI-H226 lung): 0.128 µM | TGI (NCI-H226 lung): 0.446 µM | GI50 (NCI-H23 lung): 5.77 µM | TGI (NCI-H23 lung): 37.1 µM | GI50 (NCI-H460 lung): 0.913 µM | TGI (NCI-H460 lung): 15.6 µM | GI50 (NCI-H522 lung): 7 µM | TGI (NCI-H522 lung): 28 µM | GI50 (NCI/ADR-RES ovarian): 13 µM | TGI (NCI/ADR-RES ovarian): 88.6 µM | GI50 (OVCAR-3 ovarian): 3.16 µM | TGI (OVCAR-3 ovarian): 15.7 µM | GI50 (OVCAR-4 ovarian): 7.21 µM | TGI (OVCAR-4 ovarian): > 84.2 µM | GI50 (OVCAR-5 ovarian): 0.737 µM | TGI (OVCAR-5 ovarian): 9.71 µM | GI50 (OVCAR-8 ovarian): 10.9 µM | TGI (OVCAR-8 ovarian): > 100 µM | GI50 (PC-3 prostate): 8.23 µM | TGI (PC-3 prostate): > 100 µM | GI50 (RPMI-8226 leukemia): 5.08 µM | TGI (RPMI-8226 leukemia): 38.8 µM | GI50 (RXF 393 renal): 13.2 µM | TGI (RXF 393 renal): > 90.4 µM | GI50 (SF-268 CNS): 18.2 µM | TGI (SF-268 CNS): > 100 µM | GI50 (SF-295 CNS): 2.45 µM | TGI (SF-295 CNS): 22.1 µM | GI50 (SF-539 CNS): 17.1 µM | TGI (SF-539 CNS): 40.1 µM | GI50 (SK-MEL-2 melanoma): 8.62 µM | TGI (SK-MEL-2 melanoma): 28.6 µM | GI50 (SK-MEL-28 melanoma): 17.6 µM | TGI (SK-MEL-28 melanoma): 59.8 µM | GI50 (SK-MEL-5 melanoma): 3.85 µM | TGI (SK-MEL-5 melanoma): 14.5 µM | GI50 (SK-OV-3 ovarian): 23.6 µM | TGI (SK-OV-3 ovarian): > 100 µM | GI50 (SN12C renal): 14.7 µM | TGI (SN12C renal): > 100 µM | GI50 (SNB-19 CNS): 18.5 µM | TGI (SNB-19 CNS): > 100 µM | GI50 (SNB-75 CNS): 29.3 µM | TGI (SNB-75 CNS): > 100 µM | GI50 (SR leukemia): 4.1 µM | TGI (SR leukemia): 28.2 µM | GI50 (SW-620 colon): 5.3 µM | TGI (SW-620 colon): 25.1 µM | GI50 (T-47D breast): 0.452 µM | TGI (T-47D breast): 8.81 µM | GI50 (TK-10 renal): 2 µM | TGI (TK-10 renal): 6.75 µM | GI50 (U251 CNS): 4.72 µM | TGI (U251 CNS): 29.2 µM | GI50 (UACC-257 melanoma): 0.421 µM | TGI (UACC-257 melanoma): 2.49 µM | GI50 (UACC-62 melanoma): 0.47 µM | TGI (UACC-62 melanoma): 3.07 µM | GI50 (UO-31 renal): 6.03 µM | TGI (UO-31 renal): 36.4 µM
